Measurements published in article PMC2725291, “Genetic and Molecular Basis of Individual Differences in Human Umami Taste Perception” (PLoS ONE, 2009).

Target: T1, TAS1R1-12H-372A/TAS1R3 -757R (Homo sapiens, UniProt Q7RTX0+Q7RTX1, C757R/Q12H)
T1 construct: expressed in transfected cells; host or cells: HEK293
T1 sequence (Q7RTX1 21-841): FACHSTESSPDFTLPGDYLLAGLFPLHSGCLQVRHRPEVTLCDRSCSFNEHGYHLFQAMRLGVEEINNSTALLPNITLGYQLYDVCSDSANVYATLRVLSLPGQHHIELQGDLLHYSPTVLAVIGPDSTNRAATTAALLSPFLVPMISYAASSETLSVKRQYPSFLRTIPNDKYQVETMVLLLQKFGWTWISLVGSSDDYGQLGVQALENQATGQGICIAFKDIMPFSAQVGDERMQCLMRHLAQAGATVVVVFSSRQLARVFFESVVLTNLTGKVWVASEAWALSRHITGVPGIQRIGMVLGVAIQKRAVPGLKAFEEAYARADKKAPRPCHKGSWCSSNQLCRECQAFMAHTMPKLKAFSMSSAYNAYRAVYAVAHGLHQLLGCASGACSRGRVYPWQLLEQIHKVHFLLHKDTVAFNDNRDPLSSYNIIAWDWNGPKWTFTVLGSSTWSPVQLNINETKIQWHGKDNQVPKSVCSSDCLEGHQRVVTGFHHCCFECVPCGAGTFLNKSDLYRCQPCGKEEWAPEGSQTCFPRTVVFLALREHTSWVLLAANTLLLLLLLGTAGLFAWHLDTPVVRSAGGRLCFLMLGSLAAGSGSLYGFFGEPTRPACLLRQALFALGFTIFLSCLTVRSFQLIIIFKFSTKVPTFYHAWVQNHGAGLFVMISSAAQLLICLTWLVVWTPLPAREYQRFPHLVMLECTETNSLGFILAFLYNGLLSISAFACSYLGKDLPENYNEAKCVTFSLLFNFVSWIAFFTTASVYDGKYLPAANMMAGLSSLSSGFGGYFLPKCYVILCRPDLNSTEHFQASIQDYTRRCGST
T1 sequence (Q7RTX0 21-852 C757R): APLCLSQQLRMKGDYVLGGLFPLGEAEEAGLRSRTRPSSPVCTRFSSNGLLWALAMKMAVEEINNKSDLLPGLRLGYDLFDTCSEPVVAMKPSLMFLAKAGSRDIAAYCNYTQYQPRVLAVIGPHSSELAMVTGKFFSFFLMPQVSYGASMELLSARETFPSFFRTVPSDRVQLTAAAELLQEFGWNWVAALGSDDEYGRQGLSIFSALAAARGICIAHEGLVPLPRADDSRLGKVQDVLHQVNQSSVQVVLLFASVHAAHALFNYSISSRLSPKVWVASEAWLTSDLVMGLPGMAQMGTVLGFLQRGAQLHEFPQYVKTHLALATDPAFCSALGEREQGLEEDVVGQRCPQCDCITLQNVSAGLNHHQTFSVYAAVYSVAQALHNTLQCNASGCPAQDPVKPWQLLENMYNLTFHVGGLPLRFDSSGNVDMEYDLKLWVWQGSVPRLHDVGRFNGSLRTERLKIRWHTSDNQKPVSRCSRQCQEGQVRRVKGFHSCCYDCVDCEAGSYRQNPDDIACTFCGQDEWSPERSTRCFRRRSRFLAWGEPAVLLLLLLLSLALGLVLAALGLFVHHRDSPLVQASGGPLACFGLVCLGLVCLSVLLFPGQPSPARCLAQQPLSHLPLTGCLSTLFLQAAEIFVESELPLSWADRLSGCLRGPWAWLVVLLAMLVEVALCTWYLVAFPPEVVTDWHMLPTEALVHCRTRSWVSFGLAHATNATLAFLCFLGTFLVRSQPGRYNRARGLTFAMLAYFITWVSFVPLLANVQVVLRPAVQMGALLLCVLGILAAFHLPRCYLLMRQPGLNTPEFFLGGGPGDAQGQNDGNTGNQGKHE
Assay: Ca2+ imaging in HEK293 cells, Q12H amino acid substitution of TAS1R1
Format: cell-based
Conditions: vs. TAS1R1-12Q-372A/TAS1R3-757R; Figure S3
From the text: Intronless human TAS1Rs and Gαl6 expression constructs were generated in the pEF-DEST51 Gateway vector (Invitrogen) by genomic DNA-based methods. To subclone each gene into the vector, a Kozak cassette was introduced at the 5′ end before the start codon. Gαl6 chimeras were generated by PCR with mutagenic primers. The carboxyl-terminal tail of Gαl6, five-residue (EINLL) was replaced by its counterpart from Gαi3 (ECGLY; Gα16-i3), Gαgust (DCGLF; Gα16-gust), and Gα16-gust44 was generated as described. The integrity of all DNA constructs was confirmed by DNA sequencing. Point mutations in TAS1Rs were made using the same overlapping PCR strategy with mutagenic primers. […]
HEK293 cells were cultured at 37°C under a humidified atmosphere containing 5% CO2 in Dulbecco's modified Eagle's medium supplemented with 10% fetal bovine serum. […] The transfection efficiencies were estimated by visualizing DsRed fluorescence (data not shown) or by immunocytochemistry of TAS1R3, and were typically 50∼55% (Figure S4). […]
Another imaging system, FlexStation II (Molecular Devices) was used for TAS1R mutant analysis. […] Fluorescence changes (excitation at 485 nm, emission at 525 nm, and cutoff at 515 nm) were monitored at 2 sec intervals; 50 µl of HBSS supplemented with 2×tastants were added at 30 sec, and scanning was continued for an additional 120 sec. […]

N[C@@H](CCC(=O)O)C(=O)[O-].[Na+] [MSG, monosodium glutamate]
effect of the Q12H amino acid mutation of TAS1R1 on responses: did not affect
